According to patent US20190047966A1, “NOVEL COMPOUND AND PHARMACOLOGICALLY ACCEPTABLE SALT THEREOF” (MEIJI SEIKA PHARMA CO., LTD., priority 2016, published 2019):
Where two headings read alike, the source gives them in different places.

Legend:
[1] = target: T1, human histamine H1 receptor (Homo sapiens, UniProt P35367); experiment: Evaluation of Human H1 Receptor Affinity ([3H]pyrilamine binding); design: purchased PerkinElmer Inc; host or cells: CHO-K1; conditions: inhibition constant Ki, CHO-K1 membrane preparation
T1 sequence (P35367 whole entry): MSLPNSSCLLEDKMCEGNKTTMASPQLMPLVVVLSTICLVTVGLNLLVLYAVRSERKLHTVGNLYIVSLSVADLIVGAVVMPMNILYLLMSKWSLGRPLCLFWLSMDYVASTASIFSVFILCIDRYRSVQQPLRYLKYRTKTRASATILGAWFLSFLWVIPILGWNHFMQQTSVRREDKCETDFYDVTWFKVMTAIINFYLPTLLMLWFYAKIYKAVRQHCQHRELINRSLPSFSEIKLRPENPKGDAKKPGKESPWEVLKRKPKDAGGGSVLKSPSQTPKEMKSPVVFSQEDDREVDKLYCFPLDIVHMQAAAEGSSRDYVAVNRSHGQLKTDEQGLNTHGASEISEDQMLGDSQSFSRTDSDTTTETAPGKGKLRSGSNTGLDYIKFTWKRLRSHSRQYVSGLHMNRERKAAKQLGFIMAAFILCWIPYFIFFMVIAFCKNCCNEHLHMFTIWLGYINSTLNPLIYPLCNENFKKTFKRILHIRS
Summary of the method: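 Ki values are Cheng-Prusoff conversions of IC50 (Kd 1.1 nM) from radioligand displacement of 1.2 nM [3H]pyrilamine, with 1.0 μM pyrilamine defining nonspecific binding.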

[2] = target: T2, human histamine H4 receptor (Homo sapiens, UniProt Q9H3N8); experiment: Evaluation of Human H4 Receptor Affinity ([3H]histamine binding); conditions: inhibition constant Ki, CHO-K1 membrane preparation
T2 construct: purchased PerkinElmer Inc; host or cells: CHO-K1
Summary of the method: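 Radioligand displacement: compound competes with 8.2 nM [3H]histamine at recombinant human H4 receptor in CHO-K1 membranes (Tris-HCl 50 mM pH 7.4, EDTA 1.25 mM; 25 °C, 90 min), with filter-bound radioactivity counted. IC50 was converted to Ki via Cheng-Prusoff (Kd 5.7 nM); 1.0 μM histamine set nonspecific binding.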

[3] = target: T2, human histamine H4 receptor; experiment: Evaluation of H4 Receptor Function ([35S]GTPγS binding); format: biochemical
Protocol: The antagonistic effect was evaluated by the method described below. Membrane preparation from recombinant CHO-K1 cell expressing the human histamine H4 receptor (PerkinElmer Inc.), 10 μM GDP, 0.1 μM histamine, and the compounds dissolved in DMSO were reacted at 30° C. for 20 minutes in a buffering solution containing 20 mM HEPES, pH 7.4, 100 mM NaCl, 10 mM MgCl2, 1 mM DTT, and 1 mM EDTA on an assay plate. Thereafter, SPA beads (Amersham plc) were added, followed by incubation for 60 minutes, and further 0.3 nM [^35S]GTPγS (PerkinElmer Inc.) was added, followed by incubation for 30 minutes.

[4] = target: T1, human histamine H1 receptor; experiment: Evaluation of Human H1 Receptor Function (GeneBLAzer H1-NFAT-bla HEK 293T cells); format: cell-based; conditions: histamine 30 nM, read-out: Evaluation of H1 Receptor Function (IC50 value, antagonistic effect)
Protocol: Test Example 3: Evaluation of Human H1 Receptor Function
The antagonistic effect was evaluated by the method described below. GeneBLAzer® H1-NFAT-bla HEK 293T-cells (Invitrogen Corporation, recombinant cells expressing the human histamine H1 receptor) were incubated at 37° C. for 30 minutes in the presence of the test compounds dissolved in DMSO in a high glucose Dulbecco's Modified Eagle Medium (GlutaMAX, containing 10% fetal bovine serum, 100 μM nonessential amino acids, 25 mM HEPES, 100 U/mL penicillin, and 100 μg/mL streptomycin), and histamine was added such that the final concentration became 30 nM, followed by further incubation for 4.5 hours. Then, a mixture of LiveBLAzer™ FRET-B/G Loading Kit (Invitrogen Corporation) and Solution D (Invitrogen Corporation) was added, followed by leaving to stand at room temperature for 2 hours under shaded conditions. Thereafter, the fluorescence intensity was measured under two conditions of 400 nm/460 nm and 400 nm/535 nm (excitation light/fluorescence) by using a multilabel counter (EnVision: PerkinElmer Inc.). The 50% inhibitory concentration (IC50 value) was calculated in accordance with (measured value−blank measured value at 400 nm/460 nm)/(measured value−blank measured value at 400 nm/535 nm) of each test sample.

[5] = read-out: Evaluation of H4 Receptor Affinity
[6] = [35S]GTPγS binding, CHO-K1 membrane, 0.1 μM histamine, read-out: Evaluation of H4 Receptor Function (IC50 value, antagonistic effect)

Row | SMILES | Ki [1] [nM] | Ki [2, 5] [nM] | IC50 [3, 6] [nM] | IC50 [4] [nM] | Ki ([2]; Evaluation of H4 Receptor Affinity) [nM] | IC50 [3] [nM]
1 | Nc1nc2c(c(N3CCN(CCOCc4cccc(C(=O)O)c4)CC3)n1)CCc1cc(OCc3ccc(Cl)cc3)ccc1-2 [15(b), 3-((2-(4-(2-amino-8-((4-chlorobenzyl)oxy)-5,6-dihydrobenzo[h]quinazolin-4-yl)piperazin-1-yl)ethoxy)methyl)benzoic acid] | < 100 | < 100 | 200 to 2000 | < 200 | – | –
2 | Nc1nc2c(c(N3CCN(CCOCc4cccc(C(=O)O)c4)CC3)n1)CCc1cc(OCc3ccc(OC(F)(F)F)cc3)ccc1-2 [16(b), 3-((2-(4-(2-amino-8-((4-(trifluoromethoxy)benzyl)oxy)-5,6-dihydrobenzo[h]quinazolin-4-yl)piperazin-1-yl)ethoxy)methyl)benzoic acid] | < 100 | < 100 | 200 to 2000 | < 200 | – | –
3 | Nc1nc2c(c(N3CCN(CCOCc4ccc(F)c(C(=O)O)c4)CC3)n1)CCc1cc(OCc3ccc(Cl)cc3)ccc1-2 [17(b), 5-((2-(4-(2-amino-8-((4-chlorobenzyl)oxy)-5,6-dihydrobenzo[h]quinazolin-4-yl)piperazin-1-yl)ethoxy)methyl)-2-fluorobenzoic acid] | < 100 | < 100 | 200 to 2000 | < 200 | – | –
4 | Nc1nc2c(c(N3CCN(CCOCc4cccc(C(=O)O)n4)CC3)n1)CCc1cc(OCc3ccc(Cl)cc3)ccc1-2 [18(b), 6-((2-(4-(2-amino-8-((4-chlorobenzyl)oxy)-5,6-dihydrobenzo[h]quinazolin-4-yl)piperazin-1-yl)ethoxy)methyl)picolinic acid bis(trifluoroacetate)] | < 100 | < 100 | 200 to 2000 | < 200 | – | –
5 | Nc1nc2c(c(N3CCN(CCOCc4ccc(C(=O)O)o4)CC3)n1)CCc1cc(OCc3ccc(OC(F)(F)F)cc3)ccc1-2 [20(b), 5-((2-(4-(2-amino-8-((4-(trifluoromethoxy)benzyl)oxy)-5,6-dihydrobenzo[h]quinazolin-4-yl)piperazin-1-yl)ethoxy)methyl)furan-2-carboxylic acid] | < 100 | < 100 | 200 to 2000 | < 200 | – | –
6 | Nc1nc2c(c(N3CCN(CCOCc4cc(C(=O)O)ccc4F)CC3)n1)CCc1cc(OCc3ccc(Cl)cc3)ccc1-2 [129(b), 3-((2-(4-(2-amino-8-((4-chlorobenzyl)oxy)-5,6-dihydrobenzo[h]quinazolin-4-yl)piperazin-1-yl)ethoxy)methyl)-4-fluorobenzoic acid] | < 100 | 100 to 500 | 200 to 2000 | < 200 | – | –
7 | CN1CCN(c2nc(N)nc3c2CCc2cc(OCc4ccc(Cl)cc4)ccc2-3)CC1 [Example 1, 8-((4-chlorobenzyl)oxy)-4-(4-methylpiperazin-1-yl)-5,6-dihydrobenzo[h]quinazolin-2-amine] | < 100 | < 100 | < 200 | < 200 | – | –
8 | CN1CCN(c2nc(N)nc3c2CCc2cc(OCc4ccccc4)ccc2-3)CC1 [Example 2, 8-(benzyloxy)-4-(4-methylpiperazin-1-yl)-5,6-dihydrobenzo[h]quinazolin-2-amine] | < 100 | – | – | < 200 | < 100 | < 200
9 | CN1CCN(c2nc(N)nc3c2CCc2cc(OCc4ccsc4)ccc2-3)CC1 [Example 3, 4-(4-methylpiperazin-1-yl)-8-(thiophen-3-ylmethoxy)-5,6-dihydrobenzo[h]quinazolin-2-amine] | < 100 | < 100 | < 200 | < 200 | – | –
10 | Nc1nc2c(c(N3CCN(CCOCCOCc4nn[nH]n4)CC3)n1)CCc1cc(OCc3ccc(Cl)cc3)ccc1-2 [Example 21, 4-(4-(2-(2-((tetrazol-5-yl)methoxy)ethoxy)ethyl)piperazin-1-yl)-8-((4-chlorobenzyl)oxy)-5,6-dihydrobenzo[h]quinazolin-2-amine] | < 100 | < 100 | 200 to 2000 | < 200 | – | –
11 | Nc1nc2c(c(N3CCN(CCOCc4nn[nH]n4)CC3)n1)CCc1cc(OCc3ccc(Cl)cc3)ccc1-2 [Example 22, 4-(4-(2-((tetrazol-5-yl)methoxy)ethyl)piperazin-1-yl)-8-((4-chlorobenzyl)oxy)-5,6-dihydrobenzo[h]quinazolin-2-amine] | < 100 | < 100 | 200 to 2000 | < 200 | – | –
12 | Nc1nc2c(c(N3CCN(CCOC[C@H]4CC[C@H](C(=O)O)CC4)CC3)n1)CCc1cc(OCc3ccc(OC(F)(F)F)cc3)ccc1-2 [Example 29, trans-4-((2-(4-(2-amino-8-((4-(trifluoromethoxy)benzyl)oxy)-5,6-dihydrobenzo[h]quinazolin-4-yl)piperazin-1-yl)ethoxy)methyl)cyclohexane-1-carboxylic acid] | < 100 | < 100 | < 200 | < 200 | – | –

The next lines start with the values.

Row | Ki [1] [nM] | Ki [2, 5] [nM] | IC50 [3, 6] [nM] | IC50 [4] [nM] | Ki ([2]; Evaluation of H4 Receptor Affinity) [nM] | IC50 [3] [nM] | SMILES
13 | 100 to 500 | < 100 | < 200 | 200 to 2000 | – | – | Nc1nc2c(c(N3CCN(CCOc4ccc(C(=O)O)cc4)CC3)n1)CCc1cc(OCc3ccc(Cl)cc3)ccc1-2 [19(b), 4-(2-(4-(2-amino-8-((4-chlorobenzyl)oxy)-5,6-dihydrobenzo[h]quinazolin-4-yl)piperazin-1-yl)ethoxy)benzoic acid]
14 | < 100 | < 100 | < 200 | < 200 | – | – | Nc1nc2c(c(N3CCN(CCO[C@H]4C[C@@H](C(=O)O)C4)CC3)n1)CCc1cc(OCc3ccc(OC(F)(F)F)cc3)ccc1-2 [23(b), cis-3-(2-(4-(2-amino-8-((4-(trifluoromethoxy)benzyl)oxy)-5,6-dihydrobenzo[h]quinazolin-4-yl)piperazin-1-yl)ethoxy)cyclobutane-1-carboxylic acid]
15 | < 100 | 100 to 500 | 200 to 2000 | < 200 | – | – | Nc1nc2c(c(N3CCN(CCOCc4ccc(C(=O)O)o4)CC3)n1)CCc1cc(OCc3ccc(Cl)cc3)ccc1-2 [127(b), 5-((2-(4-(2-amino-8-((4-chlorobenzyl)oxy)-5,6-dihydrobenzo[h]quinazolin-4-yl)piperazin-1-yl)ethoxy)methyl)furan-2-carboxylic acid]
16 | < 100 | < 100 | 200 to 2000 | < 200 | – | – | Nc1nc2c(c(N3CCN(CCOC[C@H]4CC[C@@H](C(=O)O)CC4)CC3)n1)CCc1cc(OCc3ccc(Cl)cc3)ccc1-2 [Example 12, cis-4-((2-(4-(2-amino-8-((4-chlorobenzyl)oxy)-5,6-dihydrobenzo[h]quinazolin-4-yl)piperazin-1-yl)ethoxy)methyl)cyclohexane-1-carboxylic acid]
17 | < 100 | < 100 | 200 to 2000 | < 200 | – | – | Nc1nc2c(c(N3CCN(CCOC[C@H]4CC[C@H](C(=O)O)CC4)CC3)n1)CCc1cc(OCc3ccc(Cl)cc3)ccc1-2 [Example 13, trans-4-((2-(4-(2-amino-8-((4-chlorobenzyl)oxy)-5,6-dihydrobenzo[h]quinazolin-4-yl)piperazin-1-yl)ethoxy)methyl)cyclohexane-1-carboxylic acid]
18 | < 100 | < 100 | 200 to 2000 | < 200 | – | – | Nc1nc2c(c(N3CCN(CCO[C@H]4C[C@@H](C(=O)O)C4)CC3)n1)CCc1cc(OCc3ccc(Cl)cc3)ccc1-2 [Example 14, cis-3-(2-(4-(2-amino-8-((4-chlorobenzyl)oxy)-5,6-dihydrobenzo[h]quinazolin-4-yl)piperazin-1-yl)ethoxy)cyclobutane-1-carboxylic acid]
